Laboratory results reported in paper PMC12150293 (RSC Advances, 2025).
Where two headings read alike, the source gives them in different places.

Legend:
MDA-MB-231 cells = assay: MTT cytotoxicity assay on breast cancer cells; conditions: for IC50: read-out: MDA-MB-231 IC50
A549 cells = assay: MTT cytotoxicity assay on non-small cell lung cancer cells; conditions: for IC50: read-out: A549 IC50
BEAS-2B cells = assay: MTT cytotoxicity assay on normal human lung epithelial cells; conditions: 48 h, read-out: BEAS-2B IC50
EGFR^WT = EGFR^WT (Homo sapiens, UniProt P00533); assay: EGFR^WT kinase inhibition assay; type: biochemical
c-Myc [1] = assay: mRNA expression; type: cell-based, human; conditions: MDA-MB-231 cells; reduction to
CD-44 = assay: mRNA expression; type: cell-based, human; conditions: MDA-MB-231 cells; reduction to
CD-133 = assay: mRNA expression; type: cell-based, human; conditions: MDA-MB-231 cells; reduction to
VEGF = assay: mRNA expression; type: cell-based, human; conditions: MDA-MB-231 cells; reduction to
TGF [2] = assay: mRNA expression; type: cell-based, human; conditions: MDA-MB-231 cells; reduction to
c-Myc [3] = assay: mRNA expression; type: cell-based, human; conditions: A549 cells
TGF [4] = assay: mRNA expression; type: cell-based, human; conditions: A549 cells
miRNA-132 [5] = assay: miRNA-132 expression in MDA-MB-231 cells; type: cell-based, human; conditions: elevation
miRNA-200c [6] = assay: miRNA-200c expression in MDA-MB-231 cells; type: cell-based, human; conditions: elevation
miRNA-132 [7] = assay: miRNA-132 expression in A549 cells; type: cell-based, human; conditions: enhancement
miRNA-200c [8] = assay: miRNA-200c expression in A549 cells; type: cell-based, human; conditions: enhancement
caspase-3 = assay: Caspase-3 activation assay; type: cell-based, human; conditions: A549 cells, compound at its IC50 concentration, 48 h
caspase-9 = assay: Caspase-9 activation assay; type: cell-based, human; conditions: A549 cells, compound at its IC50 concentration, 48 h
EGFR^L858R/T790M/C797S = EGFR^L858R/T790M/C797S (Homo sapiens, UniProt P00533, C797S/L858R/T790M); assay: biochemical
Sequence of EGFR^L858R/T790M/C797S (P00533 25-1210 T790M/C797S/L858R): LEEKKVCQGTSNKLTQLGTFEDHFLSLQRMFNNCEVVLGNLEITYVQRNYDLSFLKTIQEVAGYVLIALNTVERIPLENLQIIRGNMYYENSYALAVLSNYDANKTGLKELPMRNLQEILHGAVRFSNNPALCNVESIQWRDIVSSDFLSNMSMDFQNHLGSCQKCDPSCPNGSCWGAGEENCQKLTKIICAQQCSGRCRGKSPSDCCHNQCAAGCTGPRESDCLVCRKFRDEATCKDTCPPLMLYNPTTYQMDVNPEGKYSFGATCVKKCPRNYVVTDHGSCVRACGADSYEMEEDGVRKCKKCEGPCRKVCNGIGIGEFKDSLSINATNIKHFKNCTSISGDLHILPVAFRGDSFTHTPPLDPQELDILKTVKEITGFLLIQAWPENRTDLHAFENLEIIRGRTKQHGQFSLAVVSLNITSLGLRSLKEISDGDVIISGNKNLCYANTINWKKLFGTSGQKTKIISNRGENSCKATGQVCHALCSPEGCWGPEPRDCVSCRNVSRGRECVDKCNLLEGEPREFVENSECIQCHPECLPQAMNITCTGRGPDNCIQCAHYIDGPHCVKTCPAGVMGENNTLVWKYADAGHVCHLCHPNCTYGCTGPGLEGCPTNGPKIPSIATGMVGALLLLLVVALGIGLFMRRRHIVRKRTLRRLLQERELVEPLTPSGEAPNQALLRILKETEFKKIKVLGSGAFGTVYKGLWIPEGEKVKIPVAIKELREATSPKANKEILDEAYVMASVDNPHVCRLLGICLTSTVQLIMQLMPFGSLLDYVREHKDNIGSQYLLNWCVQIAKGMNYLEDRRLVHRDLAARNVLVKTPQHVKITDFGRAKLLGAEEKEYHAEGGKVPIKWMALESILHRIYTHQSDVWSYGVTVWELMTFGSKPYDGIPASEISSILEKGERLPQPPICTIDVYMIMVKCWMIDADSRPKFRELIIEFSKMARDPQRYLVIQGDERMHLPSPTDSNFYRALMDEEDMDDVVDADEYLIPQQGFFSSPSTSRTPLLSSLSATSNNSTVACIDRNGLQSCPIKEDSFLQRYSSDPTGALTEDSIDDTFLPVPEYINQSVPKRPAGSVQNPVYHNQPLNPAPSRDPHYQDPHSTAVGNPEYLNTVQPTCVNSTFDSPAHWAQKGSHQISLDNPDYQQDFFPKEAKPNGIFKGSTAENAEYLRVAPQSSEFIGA

Sequence of EGFR^WT (P00533 25-1210): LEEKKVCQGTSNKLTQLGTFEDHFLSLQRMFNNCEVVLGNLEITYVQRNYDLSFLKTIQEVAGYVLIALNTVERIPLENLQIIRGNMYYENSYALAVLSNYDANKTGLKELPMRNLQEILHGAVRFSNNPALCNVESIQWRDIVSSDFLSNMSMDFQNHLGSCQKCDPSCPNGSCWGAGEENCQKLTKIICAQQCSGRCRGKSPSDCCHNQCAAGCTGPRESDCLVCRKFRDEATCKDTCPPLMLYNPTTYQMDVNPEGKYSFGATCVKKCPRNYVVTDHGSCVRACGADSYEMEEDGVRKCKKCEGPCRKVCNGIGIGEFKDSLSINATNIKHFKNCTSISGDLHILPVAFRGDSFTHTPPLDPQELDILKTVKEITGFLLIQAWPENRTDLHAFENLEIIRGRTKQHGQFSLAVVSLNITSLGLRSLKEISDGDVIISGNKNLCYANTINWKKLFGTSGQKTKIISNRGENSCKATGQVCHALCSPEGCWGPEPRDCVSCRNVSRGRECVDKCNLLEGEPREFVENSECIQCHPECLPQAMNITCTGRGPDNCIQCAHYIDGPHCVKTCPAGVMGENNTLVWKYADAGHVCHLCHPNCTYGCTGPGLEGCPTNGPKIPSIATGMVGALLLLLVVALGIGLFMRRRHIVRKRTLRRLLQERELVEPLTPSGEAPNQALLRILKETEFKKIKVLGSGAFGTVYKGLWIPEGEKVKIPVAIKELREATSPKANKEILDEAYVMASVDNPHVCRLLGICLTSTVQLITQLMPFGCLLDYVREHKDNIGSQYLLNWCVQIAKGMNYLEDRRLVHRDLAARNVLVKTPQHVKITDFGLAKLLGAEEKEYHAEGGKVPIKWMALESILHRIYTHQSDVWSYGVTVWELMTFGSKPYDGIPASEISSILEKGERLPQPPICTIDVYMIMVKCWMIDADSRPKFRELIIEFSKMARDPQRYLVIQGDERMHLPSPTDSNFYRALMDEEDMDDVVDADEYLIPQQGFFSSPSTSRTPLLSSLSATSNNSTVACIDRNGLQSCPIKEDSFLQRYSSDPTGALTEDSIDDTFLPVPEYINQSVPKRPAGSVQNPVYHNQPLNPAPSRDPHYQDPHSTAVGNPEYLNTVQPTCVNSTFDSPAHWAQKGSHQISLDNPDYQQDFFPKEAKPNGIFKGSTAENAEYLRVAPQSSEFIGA

Row | Compound | IC50 (MDA-MB-231 cells; Homo sapiens, MDA-MB-231, 48 h) [µM] | IC50 (A549 cells; Homo sapiens, A549, 48 h) [µM] | IC50 (BEAS-2B cells) [µM] | also measured
1 | O=C(Nc1ccc([N+](=O)[O-])cc1)C(c1ccc(C(F)(F)F)cc1)N(C(=O)CNS(=O)(=O)c1ccccc1)c1ccccc1 (stereo not shown) [Compound 13, N-(4-Nitrophenyl)-2-(N-phenyl-2-(phenylsulfonamido)acetamido)-2-(4-(trifluoromethyl)-phenyl)acetamide] | 73.9 ± 5.3 | 64.1 ± 5.9 | 98.5 ± 7.4 | 
2 | Cc1ccc(N(C(=O)CNC(=O)c2ccccc2)C(C(=O)Nc2ccc([N+](=O)[O-])cc2)c2ccc(C(F)(F)F)cc2)cc1 (stereo not shown) [Compound 12, N-(2-((2-((4-Nitrophenyl)amino)-2-oxo-1-(4-(trifluoromethyl)phenyl)ethyl)(p-tolyl)amino)-2-oxoethyl)benzamide] | 65.3 ± 4.7 | 73.1 ± 6.6 | 98.2 ± 8.1 | 
3 | O=C(NCC(=O)N(Cc1ccccc1)C(C(=O)Nc1ccc([N+](=O)[O-])cc1)c1ccc(C(F)(F)F)cc1)c1ccccc1 (stereo not shown) [Compound 16, N-(2-(Benzyl(2-((4-nitrophenyl)amino)-2-oxo-1-(4-(trifluoromethyl)phenyl)ethyl)amino)-2-oxoethyl)benzamide] | 27.3 ± 1.5 | 22.4 ± 0.8 | 63.8 ± 4.8 | 
4 | O=C(Nc1ccc([N+](=O)[O-])cc1)C(c1ccccc1)N(Cc1ccccc1)C(=O)/C=C/c1ccc(C(F)(F)F)cc1 (stereo not shown) [Compound 25, (E)-N-Benzyl-N-(2-((4-nitrophenyl)amino)-2-oxo-1-phenylethyl)-3-(4-(trifluoromethyl)-phenyl)acrylamide] | 95.4 ± 8.1 | 90.2 ± 8.5 | 129 ± 8.7 | 
5 | O=C(NCC(=O)N(c1ccccc1)C(C(=O)Nc1ccc([N+](=O)[O-])cc1)c1ccc(C(F)(F)F)cc1)c1ccccc1 (stereo not shown) [Compound 11, N-(2-((2-((4-Nitrophenyl)amino)-2-oxo-1-(4-(trifluoromethyl)phenyl)ethyl)(phenyl)amino)-2-oxoethyl)benzamide] | 60.2 ± 4.9 | 53.9 ± 4.4 | 82.1 ± 7.3 | 
6 | Cc1ccc(N(C(=O)c2ccccc2I)C(C(=O)Nc2ccc([N+](=O)[O-])cc2)c2ccc(C(F)(F)F)cc2)cc1 (stereo not shown) [Compound 8, 2-Iodo-N-(2-((4-nitrophenyl)amino)-2-oxo-1-(4-(trifluoromethyl)phenyl)ethyl)-N-(p-tolyl)-benzamide] | 27.1 ± 1.8 | 20.5 ± 1.1 | 62.2 ± 4.2 | 
7 | O=C(Nc1ccc([N+](=O)[O-])cc1)C(c1ccc(C(F)(F)F)cc1)N(Cc1ccccc1)C(=O)CNS(=O)(=O)c1ccccc1 (stereo not shown) [Compound 17, N-Benzyl-N-(2-((4-nitrophenyl)amino)-2-oxo-1-(4-(trifluoromethyl)phenyl)ethyl)-2-(phenylsulfonamido)acetamide] | 57 ± 4.8 | 40.8 ± 2.8 | 50.2 ± 3.4 | 
8 | O=C(Nc1ccc([N+](=O)[O-])cc1)C(c1ccc(C(F)(F)F)cc1)N(C(=O)Cc1ccccc1)c1ccccc1 (stereo not shown) [Compound 9, 2-(N,2-Diphenylacetamido)-N-(4-nitrophenyl)-2-(4-(trifluoromethyl)phenyl)acetamide] | 70.6 ± 6.1 | 46.4 ± 2.8 | 71.6 ± 5.7 | 
9 | O=C(Nc1ccc([N+](=O)[O-])cc1)C(c1ccc(C(F)(F)F)cc1)N(C(=O)c1ccccc1Cl)c1ccccc1 (stereo not shown) [Compound 5, 2-Chloro-N-(2-((4-nitrophenyl)amino)-2-oxo-1-(4-(trifluoromethyl)phenyl)ethyl)-N-phenylbenzamide] | 10.1 ± 0.6 | 6.2 ± 0.3 | 70.4 ± 5.1 | IC50 (EGFR^WT): 0.0021 ± 1e-05 µM; expression of c-Myc compared to untreated control (c-Myc [1]): 0.36 fold; expression of CD-44 compared to untreated control (CD-44): 0.5 fold; expression of CD-133 compared to untreated control (CD-133): 0.7 fold; expression of VEGF compared to untreated control (VEGF): 0.5 fold; expression of TGF compared to untreated control (TGF [2]): 0.4 fold; fold reduction in the expression of c-Myc in comparison to untreated control (c-Myc [3]): 0.41 fold; fold reduction in the expression of TGF in comparison to untreated control (TGF [4]): 0.69 fold; miRNA-132 expression, fold change compared to control (miRNA-132 [5]): 3.8 fold; miRNA-200c expression, fold change compared to control (miRNA-200c [6]): 3.1 fold; miRNA-132 expression, fold change compared to control (miRNA-132 [7]): 2.4 fold; miRNA-200c expression, fold change compared to control (miRNA-200c [8]): 1.9 fold; upregulation of caspase-3 compared to the untreated control (caspase-3): 1.8 folds; upregulation of caspase-9 compared to the untreated control (caspase-9): 2.3 folds; IC50 (EGFR^L858R/T790M/C797S): 0.19 ± 0.05 µM; fold more potent than 5-FU (MDA-MB-231 cells; MDA-MB-231 cells, ratio of IC50 values): 1.42 fold; fold more potent than 5-FU (A549 cells; A549 cells, ratio of IC50 values): 1.82 fold
10 | N.N.[Cl][Pt][Cl] [Cisplatin, cisplatin, reference compound] |  |  |  | IC50 (MDA-MB-231 cells; MTT assay, 48 h, mean ± SEM): 12.2 ± 0.8 µM; IC50 (A549 cells; MTT assay, 48 h, mean ± SEM): 10.1 ± 0.7 µM
11 | Cc1ccc(N(C(=O)c2ccc3ccccc3n2)C(C(=O)Nc2ccc([N+](=O)[O-])cc2)c2ccc(C(F)(F)F)cc2)cc1 (stereo not shown) [Compound 19, N-(2-((4-Nitrophenyl)amino)-2-oxo-1-(4-(trifluoromethyl)phenyl)ethyl)-N-(p-tolyl)-quinoline-2-carboxamide] | 73.1 ± 5.7 | 46.2 ± 4.1 | 50.1 ± 3.3 | 
12 | Cc1ccc(N(C(=O)/C=C/c2ccc(C(F)(F)F)cc2)C(C(=O)Nc2ccc([N+](=O)[O-])cc2)c2ccccc2)cc1 (stereo not shown) [Compound 24, (E)-N-(2-((4-Nitrophenyl)amino)-2-oxo-1-phenylethyl)-N-(p-tolyl)-3-(4-(trifluoromethyl)-phenyl)acrylamide] | 22.1 ± 1.6 | 20.4 ± 1.7 | 54.2 ± 4.1 | 
13 | O=C(Nc1ccc([N+](=O)[O-])cc1)C(c1ccc(C(F)(F)F)cc1)N(Cc1ccccc1)C(=O)Cc1ccccc1 (stereo not shown) [Compound 15, N-Benzyl-N-(2-((4-nitrophenyl)amino)-2-oxo-1-(4-(trifluoromethyl)phenyl)-ethyl)-2-phenyl-acetamide] | 65.7 ± 5.4 | 61.1 ± 4.5 | 69.4 ± 4.7 | 
14 | O=C(Nc1ccc([N+](=O)[O-])cc1)C(c1ccc(C(F)(F)F)cc1)N(C(=O)c1ccccc1I)c1ccccc1 (stereo not shown) [Compound 7, 2-Iodo-N-(2-((4-nitrophenyl)amino)-2-oxo-1-(4-(trifluoromethyl)phenyl)ethyl)-N-phenyl-benzamide] | 28.2 ± 1.4 | 20.6 ± 1.5 | 75.6 ± 5.8 | 
15 | Cc1ccc(N(C(=O)CNS(=O)(=O)c2ccccc2)C(C(=O)Nc2ccc([N+](=O)[O-])cc2)c2ccc(C(F)(F)F)cc2)cc1 (stereo not shown) [Compound 14, N-(4-Nitrophenyl)-2-(2-(phenylsulfonamido)-N-(p-tolyl)acetamido)-2-(4-(trifluoromethyl)-phenyl)acetamide] | 74.8 ± 6.1 | 55.3 ± 4.2 | 84.7 ± 6.9 | 
16 | O=c1[nH]cc(F)c(=O)[nH]1 [Compound 5-FU, 5-fluorouracil, reference compound] | 14.4 ± 0.9 | 11.3 ± 1.1 | 7.2 ± 0.5 | 
17 | Cc1ccc(N(C(=O)Cc2ccccc2)C(C(=O)Nc2ccc([N+](=O)[O-])cc2)c2ccc(C(F)(F)F)cc2)cc1 (stereo not shown) [Compound 10, N-(4-Nitrophenyl)-2-(2-phenyl-N-(p-tolyl)acetamido)-2-(4-(trifluoromethyl)phenyl)-acetamide] | 84.4 ± 6.9 | 71.5 ± 6.8 | 83.3 ± 6.8 | 
18 | O=C(Nc1ccc([N+](=O)[O-])cc1)C(c1ccc(C(F)(F)F)cc1)N(C(=O)c1ccc2ccccc2n1)c1ccccc1 (stereo not shown) [Compound 18, N-(2-((4-Nitrophenyl)amino)-2-oxo-1-(4-(trifluoromethyl)phenyl)ethyl)-N-phenylquinoline-2-carboxamide] | 25.1 ± 1.9 | 20.1 ± 1.4 | 55.7 ± 3.5 | 
19 | Cc1ccc(N(C(=O)c2ccccc2Cl)C(C(=O)Nc2ccc([N+](=O)[O-])cc2)c2ccc(C(F)(F)F)cc2)cc1 (stereo not shown) [Compound 6, 2-Chloro-N-(2-((4-nitrophenyl)amino)-2-oxo-1-(4-(trifluoromethyl)phenyl)-ethyl)-N-(p-tolyl)benzamide] | 54.2 ± 4.7 | 39.9 ± 2.7 | 50.1 ± 3.6 | 
20 | O=C(Nc1ccc([N+](=O)[O-])cc1)C(c1ccccc1)N(C(=O)/C=C/c1ccc(C(F)(F)F)cc1)c1ccccc1 (stereo not shown) [Compound 23, (E)-N-(2-((4-Nitrophenyl)amino)-2-oxo-1-phenylethyl)-N-phenyl-3-(4-(trifluoromethyl)-phenyl)acrylamide] | 30.3 ± 2.4 | 26.1 ± 2.1 | 30.9 ± 2.3 | 
